In this experiment the target is Gastrin/cholecystokinin type B receptor (Cavia porcellus). The experiment is described as follows: Inhibition of binding of [125I]gastrin to Cholecystokinin type B receptor from guinea pig gastric glands.
In the case of `O=C(O)CC[C@H](NC(=O)c1cc2ccccc2[nH]1)C(=O)N(C1CCCCC1)C1CCCCC1`, the IC50 (as a rule, the midpoint of a concentration-inhibition curve) worked out at 4.1 µM.

For `CCCCCN(CCCCC)C(=O)C(CCC(=O)N1CCCC1)NC(=O)Nc1ccc(Cl)cc1` (centres undefined), the IC50 worked out at 0.43 µM.

For the compound `CCCCCN(CCCCC)C(=O)[C@@H](CCC(=O)O)NC(=O)Nc1cccc(OC)c1`, the IC50 turned out to be 13 µM.

For the compound `CCCCCN(CCCCC)C(=O)C(CCC(=O)OCc1ccccc1)NC(=O)Nc1ccc(Cl)cc1` (centres undefined), the IC50 was determined as 44 µM.

These data come from BindingDB's records for doi:10.1021/jm00164a020 (Merck Sharp & Dohme Research Laboratories, 1990).
